Patent publication US10961231B2, “NTCP inhibitors” (National Institute of Biological Sciences, Beijing, priority 2018, dated 2021)

Target: T1, NTCP (Homo sapiens, UniProt Q14973)
T1 sequence (Q14973 1-349): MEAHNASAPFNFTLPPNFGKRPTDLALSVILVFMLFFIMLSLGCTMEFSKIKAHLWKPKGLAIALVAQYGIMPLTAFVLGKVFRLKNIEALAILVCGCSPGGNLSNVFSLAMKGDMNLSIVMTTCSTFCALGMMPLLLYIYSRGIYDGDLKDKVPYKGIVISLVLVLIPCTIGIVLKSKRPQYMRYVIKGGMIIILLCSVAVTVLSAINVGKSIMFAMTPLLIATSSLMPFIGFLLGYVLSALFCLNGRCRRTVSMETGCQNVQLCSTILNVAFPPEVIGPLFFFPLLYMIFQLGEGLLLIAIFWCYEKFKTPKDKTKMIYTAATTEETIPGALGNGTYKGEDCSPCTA
Experiment: [3H]-TCA uptake assay (NTCP inhibition)
Assay type: cell-based
Procedure, shortened: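 PTH and HepG2-NTCP cells kept 24 h in PMM to induce NTCP, then exposed 2 h to test compounds or DMSO. Uptake of 1 μM [3H]-taurocholate in Na+ Ringer's buffer (145 mM Na) ran 15 min at 37° C. Cells washed, lysed in 1% Triton X-100, and radioactivity counted by liquid scintillation.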

[1] = given as a range, assay not given
[2] = IC50, given as a range, marked * (asterisk not explained)

| SMILES | IC50 [1] [µM] | IC50 [2] [µM] |
| --- | --- | --- |
| CCC1NC(=O)C(C2OC(OCc3ccc(Cl)cc3Cl)CC2C)N(C)C(=O)C(C(C)C)N(C)C(=O)C(CC(C)C)N(C)C(=O)C(CC(C)C)N(C)C(=O)C(C)NC(=O)C(C)NC(=O)C(CC(C)C)N(C)C(=O)C(C(C)C)NC(=O)C(CC(C)C)N(C)C(=O)CN(C)C1=O (single isomer, unassigned) [Compound 89B] | 0.001 to 1 |  |
| CCC1NC(=O)C(C2OC(OC(C)c3ccc(Cl)c(Cl)c3)CC2C)N(C)C(=O)C(C(C)C)N(C)C(=O)C(CC(C)C)N(C)C(=O)C(CC(C)C)N(C)C(=O)C(C)NC(=O)C(C)NC(=O)C(CC(C)C)N(C)C(=O)C(C(C)C)NC(=O)C(CC(C)C)N(C)C(=O)CN(C)C1=O (single isomer, unassigned) [Compound 97A] | 0.001 to 1 |  |
| CCC1NC(=O)C(C2OC(SCc3cccc(OC)c3)CC2C)N(C)C(=O)C(C(C)C)N(C)C(=O)C(CC(C)C)N(C)C(=O)C(CC(C)C)N(C)C(=O)C(C)NC(=O)C(C)NC(=O)C(CC(C)C)N(C)C(=O)C(C(C)C)NC(=O)C(CC(C)C)N(C)C(=O)CN(C)C1=O (stereo not drawn) [Compound 81A-s] |  | 1 to 100 |
| CCC1NC(=O)C(C2OC(Oc3cccc(OCCc4ccccc4)c3)CC2C)N(C)C(=O)C(C(C)C)N(C)C(=O)C(CC(C)C)N(C)C(=O)C(CC(C)C)N(C)C(=O)C(C)NC(=O)C(C)NC(=O)C(CC(C)C)N(C)C(=O)C(C(C)C)NC(=O)C(CC(C)C)N(C)C(=O)CN(C)C1=O (stereo not drawn) [Compound 35A-o] |  | 1 to 100 |
| CCC1NC(=O)C(C2OC(Oc3c(OC)cccc3OC)CC2C)N(C)C(=O)C(C(C)C)N(C)C(=O)C(CC(C)C)N(C)C(=O)C(CC(C)C)N(C)C(=O)C(C)NC(=O)C(C)NC(=O)C(CC(C)C)N(C)C(=O)C(C(C)C)NC(=O)C(CC(C)C)N(C)C(=O)CN(C)C1=O (stereo not drawn) [Compound 36A-o] |  | 1 to 100 |
| CCC1NC(=O)C(C2OC(Oc3cccc(O)c3)CC2C)N(C)C(=O)C(C(C)C)N(C)C(=O)C(CC(C)C)N(C)C(=O)C(CC(C)C)N(C)C(=O)C(C)NC(=O)C(C)NC(=O)C(CC(C)C)N(C)C(=O)C(C(C)C)NC(=O)C(CC(C)C)N(C)C(=O)CN(C)C1=O (stereo not drawn) [Compound 25A-o] |  | 1 to 100 |
| CCC1NC(=O)C(C2OC(OC(c3ccccc3)c3ccccc3)CC2C)N(C)C(=O)C(C(C)C)N(C)C(=O)C(CC(C)C)N(C)C(=O)C(CC(C)C)N(C)C(=O)C(C)NC(=O)C(C)NC(=O)C(CC(C)C)N(C)C(=O)C(C(C)C)NC(=O)C(CC(C)C)N(C)C(=O)CN(C)C1=O [Compound 80A, [2-((2R,3R)-3-methyl-5-(benzhydryloxy)tetrahydrofuran-2-yl)-2-(methylamino)acetic acid]^1-cyclosporin A] | 0.001 to 1 |  |
| CCC1NC(=O)C(C2OC(Sc3cc(Cl)cc(OCC4CCOCC4)c3)CC2C)N(C)C(=O)C(C(C)C)N(C)C(=O)C(CC(C)C)N(C)C(=O)C(CC(C)C)N(C)C(=O)C(C)NC(=O)C(C)NC(=O)C(CC(C)C)N(C)C(=O)C(C(C)C)NC(=O)C(CC(C)C)N(C)C(=O)CN(C)C1=O (stereo not drawn) [Compound 67] |  | 1 to 100 |
| CCC1NC(=O)C(C2OC(Oc3cccc(OCC4CC4)c3)CC2C)N(C)C(=O)C(C(C)C)N(C)C(=O)C(CC(C)C)N(C)C(=O)C(CC(C)C)N(C)C(=O)C(C)NC(=O)C(C)NC(=O)C(CC(C)C)N(C)C(=O)C(C(C)C)NC(=O)C(CC(C)C)N(C)C(=O)CN(C)C1=O (stereo not drawn) [Compound 32A-o] |  | 1 to 100 |
| CCC1NC(=O)C(C2OC(Oc3ccc(SCCCS(=O)(=O)O)cc3)CC2C)N(C)C(=O)C(C(C)C)N(C)C(=O)C(CC(C)C)N(C)C(=O)C(CC(C)C)N(C)C(=O)C(C)NC(=O)C(C)NC(=O)C(CC(C)C)N(C)C(=O)C(C(C)C)NC(=O)C(CC(C)C)N(C)C(=O)CN(C)C1=O (stereo not drawn) [Compound 10A-o] |  | 1 to 100 |
| CCC1NC(=O)C(C2OC(Sc3ccc(N4CCN(C)CC4)cc3)CC2C)N(C)C(=O)C(C(C)C)N(C)C(=O)C(CC(C)C)N(C)C(=O)C(CC(C)C)N(C)C(=O)C(C)NC(=O)C(C)NC(=O)C(CC(C)C)N(C)C(=O)C(C(C)C)NC(=O)C(CC(C)C)N(C)C(=O)CN(C)C1=O [Compound 6A, [2-((2R,3R)-3-methyl-5-(4-(4-methylpiperazin-1-yl)phenylthio)tetrahydrofuran-2-yl)-2-(methylamino)acetic acid]^1-cyclosporin A] | 0.001 to 1 |  |
| CCC1NC(=O)C(C2OC(Oc3cccc(N(C)Cc4ccccc4)c3)CC2C)N(C)C(=O)C(C(C)C)N(C)C(=O)C(CC(C)C)N(C)C(=O)C(CC(C)C)N(C)C(=O)C(C)NC(=O)C(C)NC(=O)C(CC(C)C)N(C)C(=O)C(C(C)C)NC(=O)C(CC(C)C)N(C)C(=O)CN(C)C1=O (stereo not drawn) [Compound 68-o] |  | 1 to 100 |
